Test systems include SK-MEL-2 melanoma; LOX IMVI melanoma; HOP-92 NSCLC; SNB-19 CNS; SF-539 CNS; HL-60(TB) leukemia; A549 NSCLC; TK-10 renal; MALME-3M melanoma.
What all share (assay): NCI anticancer screen, dose series, 48 h

22 molecules from PubChem BioAssay (NCI) can be followed below.

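Compound exposure: 48 hours, 5 concentrations, 96-well plates. GI50 marks 50% less growth. TGI: concentration producing complete growth inhibition.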

As to `CC1=C(C(=O)Nc2ccc([N+](=O)[O-])cc2)C(c2ccccc2O)C(C(=O)Nc2ccc([N+](=O)[O-])cc2)=C(C)N1`, the TGI in the assay with SK-MEL-2 melanoma is 31.8 µM; in the assay on LOX IMVI melanoma it was 34.5 µM; with HOP-92 NSCLC it was 40.1 µM; in the assay with SNB-19 CNS it was > 100 µM; in the assay with SF-539 CNS, 57.8 µM; in the assay with HL-60(TB) leukemia, 48.2 µM. Further, the TGI in the assay with A549 NSCLC is 90.4 µM; in the assay with TK-10 renal, > 100 µM; with MALME-3M melanoma it was 49.4 µM.

`CCCCN=C(NC#N)N(Cc1ccccc1)Cc1ccccc1`: the TGI in the assay with SK-MEL-2 melanoma was 36.8 µM; in the assay on LOX IMVI melanoma, 29.7 µM; in the assay with HOP-92 NSCLC it was 45.5 µM; with SNB-19 CNS, > 100 µM; in the assay on SF-539 CNS, 48.2 µM; in the assay on HL-60(TB) leukemia, 49.6 µM. Also, the TGI in the assay on A549 NSCLC, in the assay on TK-10 renal and in the assay with MALME-3M melanoma was > 100 µM each time.

Take `CN(C(=O)C12C3(C(=O)C(C)(C)C)C4C5(C#N)C3C1(C(=O)C(C)(C)C)C5C42C(=O)C(C)(C)C)C(C)(C)C` (stereo unspecified): the TGI with HOP-92 NSCLC, with SNB-19 CNS, in the assay with SF-539 CNS, in the assay with HL-60(TB) leukemia, in the assay with A549 NSCLC and in the assay with TK-10 renal was > 50 µM in each case. In addition, the TGI in the assay with MALME-3M melanoma is > 50 µM.

As to `O=c1cc(-c2ccccc2)[nH]c2c(Cl)cccc12`, the TGI is > 100 µM in the assay with SK-MEL-2 melanoma; > 100 µM in the assay on LOX IMVI melanoma; > 100 µM in the assay with SNB-19 CNS; 41.7 µM in the assay on SF-539 CNS; > 100 µM in the assay with HL-60(TB) leukemia; > 100 µM in the assay with A549 NSCLC. The TGI with TK-10 renal and in the assay on MALME-3M melanoma was > 100 µM throughout.

Consider `O=C(O)C(C(=O)C(=O)C(C(=O)O)c1ccc(Cl)cc1)c1ccc(Cl)cc1` (stereo unspecified), for which the TGI with LOX IMVI melanoma was determined as 8.79 µM; with HOP-92 NSCLC it was 8.89 µM; in the assay with SNB-19 CNS, 14.3 µM; with SF-539 CNS, 4.6 µM; in the assay with HL-60(TB) leukemia it was 6.82 µM; with A549 NSCLC, 11.2 µM. Moreover, the TGI with TK-10 renal came out at 12.3 µM; with MALME-3M melanoma, 10.4 µM.

`O=[P+](O)c1cc2ccccc2c2ccccc12`: the TGI in the assay with LOX IMVI melanoma, in the assay with SNB-19 CNS, with SF-539 CNS, in the assay with HL-60(TB) leukemia, in the assay with A549 NSCLC and in the assay on TK-10 renal was > 100 µM throughout.

For `COC(=O)[C@@]1(O)CC(C)C=C1C=O` (stereo partly specified), the TGI in the assay with SK-MEL-2 melanoma is > 100 µM; with LOX IMVI melanoma, > 100 µM; with HOP-92 NSCLC, > 100 µM; in the assay with SNB-19 CNS it was > 100 µM; in the assay with SF-539 CNS, > 100 µM; in the assay on HL-60(TB) leukemia, 51.6 µM. In addition, the TGI in the assay with A549 NSCLC is 60.9 µM; with TK-10 renal, > 100 µM; with MALME-3M melanoma, > 100 µM.

`CCCCCCCCC(O)C#CC(N)=O` (stereo unspecified): the TGI in the assay on SK-MEL-2 melanoma came out at 26.3 µM; with LOX IMVI melanoma it was 24 µM; in the assay with HOP-92 NSCLC it was 24.3 µM; with SNB-19 CNS it was 26.3 µM; in the assay on SF-539 CNS, 26.1 µM; in the assay with HL-60(TB) leukemia it was 40.3 µM. For the same molecule, the TGI in the assay on A549 NSCLC came out at 36.2 µM; in the assay with TK-10 renal, 30.8 µM; in the assay with MALME-3M melanoma, 31.8 µM.

Regarding `COc1ccc(OC)c(NCC#N)c1`, the TGI in the assay with SK-MEL-2 melanoma, in the assay with LOX IMVI melanoma, with HOP-92 NSCLC, with SNB-19 CNS, with SF-539 CNS and in the assay with HL-60(TB) leukemia was > 100 µM in each case. Further, the TGI with A549 NSCLC, in the assay on TK-10 renal and in the assay with MALME-3M melanoma was > 100 µM throughout.

As to `O=C1[C@H]2ON(c3ccccc3)C(c3ccccc3F)[C@H]2C(=O)N1c1ccc(Cc2ccc(N3C(=O)[C@@H]4ON(c5ccccc5)C(c5ccccc5F)[C@@H]4C3=O)cc2)cc1` (stereo partly specified), the TGI in the assay with SK-MEL-2 melanoma, in the assay with LOX IMVI melanoma, in the assay on HOP-92 NSCLC, in the assay on SF-539 CNS, in the assay on HL-60(TB) leukemia and in the assay with A549 NSCLC was > 100 µM throughout. Besides, the TGI in the assay on MALME-3M melanoma was > 100 µM.

Regarding `CCOC(=O)[C@H]1CSC[C@@H](C(=O)OC)N1`, the TGI in the assay on SK-MEL-2 melanoma, in the assay on LOX IMVI melanoma, in the assay with SNB-19 CNS, in the assay on HL-60(TB) leukemia, with A549 NSCLC and in the assay with TK-10 renal was > 100 µM each time. Besides, in the assay with MALME-3M melanoma, the TGI was > 100 µM.

Turning to `CC(C)N1CCC2(CC1)NNc1ncccc1-n1cccc12`, the TGI with SK-MEL-2 melanoma, in the assay on LOX IMVI melanoma, in the assay with SNB-19 CNS, in the assay on SF-539 CNS, in the assay with HL-60(TB) leukemia and in the assay on A549 NSCLC was > 100 µM in each case. Moreover, the TGI with TK-10 renal and in the assay on MALME-3M melanoma was > 100 µM each time.

Turning to `COC1=C2C[C@H](O)C(C)C[C@@]2(OC)OC1=O` (stereo partly specified), the TGI with SK-MEL-2 melanoma, with LOX IMVI melanoma, with HOP-92 NSCLC, in the assay with SNB-19 CNS, with SF-539 CNS and with HL-60(TB) leukemia was > 100 µM in each case. In addition, the TGI with A549 NSCLC and with MALME-3M melanoma was > 100 µM each time.

As for `O=C1C2CC=CCC2C(=O)C12CCc1ccccc12` (stereo unspecified), the TGI in the assay with LOX IMVI melanoma, in the assay with HOP-92 NSCLC, in the assay with HL-60(TB) leukemia, with A549 NSCLC, in the assay with TK-10 renal and with MALME-3M melanoma was > 100 µM each time.

For the molecule `NC(CC(=O)Nc1ccc(Cl)cc1)=Nc1ccccc1`, the TGI in the assay with SK-MEL-2 melanoma, with LOX IMVI melanoma, with SNB-19 CNS, in the assay on SF-539 CNS, in the assay on HL-60(TB) leukemia and with A549 NSCLC was > 100 µM in each case. In addition, the TGI in the assay on TK-10 renal and with MALME-3M melanoma was > 100 µM throughout.

Regarding `C/C(CC(=O)Nc1ccc(Cl)cc1)=N\NC(=O)C[n+]1ccccc1`, the TGI in the assay on SK-MEL-2 melanoma, in the assay with LOX IMVI melanoma, in the assay with HOP-92 NSCLC, in the assay with SF-539 CNS, with HL-60(TB) leukemia and in the assay with A549 NSCLC was > 100 µM in each case. Moreover, the TGI with TK-10 renal and in the assay with MALME-3M melanoma was > 100 µM throughout.

In the case of `CSc1nc(SC)c2c(C(N)=S)[nH]nc2n1`, the TGI with SK-MEL-2 melanoma was 50.5 µM; with LOX IMVI melanoma, 62.7 µM; in the assay on HOP-92 NSCLC, 50.4 µM; in the assay with SNB-19 CNS, 90 µM; in the assay with SF-539 CNS it was 60 µM; with A549 NSCLC it was 65.6 µM. In addition, the figures for the TGI in the assay on TK-10 renal and with MALME-3M melanoma were 63.5 µM and 88 µM, respectively.

In the case of `CC1(C)N=C(N)N=C(N)N1c1ccc(CCc2ccc(Cl)cc2S(=O)(=O)F)c(Cl)c1`, the GI50 in the assay with LOX IMVI melanoma is 4.04 µM; with HOP-92 NSCLC it was 16.6 µM; in the assay on SNB-19 CNS, 7.95 µM; in the assay on SF-539 CNS it was 5.54 µM; in the assay on HL-60(TB) leukemia, 13 µM; in the assay on A549 NSCLC, 1.49 µM. Besides, in the assay with MALME-3M melanoma, the GI50 is 14.7 µM. The TGI was 20.6 µM in the assay on LOX IMVI melanoma; 58.3 µM in the assay on HOP-92 NSCLC; > 100 µM in the assay with SNB-19 CNS; 26.1 µM in the assay on SF-539 CNS; 48.1 µM with HL-60(TB) leukemia; > 100 µM in the assay on A549 NSCLC. Also, the TGI in the assay with MALME-3M melanoma came to 60.3 µM.

As to `Nc1nc(NC2C=C(CO)C(O)C2O)c([N+](=O)[O-])c(=O)[nH]1` (stereo unspecified), the TGI in the assay on SK-MEL-2 melanoma, with LOX IMVI melanoma, in the assay with HOP-92 NSCLC, in the assay with SNB-19 CNS, with SF-539 CNS and with A549 NSCLC was > 100 µM throughout. In addition, the TGI in the assay with TK-10 renal and in the assay with MALME-3M melanoma was > 100 µM in each case.

As to `COc1ccc(C2=Nc3c/c(=C\c4c(O)[nH]c5ccc(Cl)cc45)ccc3=N2)cc1`, the GI50 in the assay with SNB-19 CNS is 1.84 µM; in the assay with SF-539 CNS, 1.78 µM; with HL-60(TB) leukemia it was 1.51 µM; in the assay with TK-10 renal, 2.45 µM. The TGI in the assay on SNB-19 CNS is 5.85 µM; in the assay on SF-539 CNS, 3.87 µM; in the assay on HL-60(TB) leukemia, 3.94 µM; in the assay on TK-10 renal it was 4.42 µM.

`NC(=O)C(=Cc1ccc(CP(=O)(O)O)cc1)C(N)=O`: the TGI in the assay on SK-MEL-2 melanoma, in the assay with LOX IMVI melanoma, in the assay on HOP-92 NSCLC, in the assay with SNB-19 CNS, in the assay on SF-539 CNS and in the assay with A549 NSCLC was > 100 µM each time. Also, the TGI in the assay with TK-10 renal and in the assay with MALME-3M melanoma was > 100 µM in each case.

For the molecule `C[C@]1(C(=O)O)N[C@H](C(=O)O)CS1`, the GI50 with SK-MEL-2 melanoma, with LOX IMVI melanoma, in the assay with HOP-92 NSCLC, with SNB-19 CNS, with A549 NSCLC and with TK-10 renal was > 1000 µM each time. In addition, the GI50 in the assay with MALME-3M melanoma is > 1000 µM. The TGI in the assay with SK-MEL-2 melanoma, in the assay on LOX IMVI melanoma, in the assay with HOP-92 NSCLC, in the assay with SNB-19 CNS, in the assay on A549 NSCLC and in the assay with TK-10 renal was > 1000 µM in each case. Further, the TGI with MALME-3M melanoma was > 1000 µM.
